Peptide text beside a SMILES is read from it.
Test system: male runners
Test: Dynavision D2 MODE B reaction test with cognitive load (hits and time per hit in 60 s)
Assay type: in vivo, human
Design: Mode B Avg Δ, Mean Difference: unit not given here
Conditions: for Mode B Avg Δ (time per hit), group mean / Mode B Hits Δ, group mean: Post-Pre
Description: The testing protocol is depicted in FIG. 1. Data collection occurred on four separate occasions. Each session required participants to perform a 60-min run at 75% of their previously measured VO2max. Following this run, all participants performed a run at 90% of their VO2max until volitional exhaustion. All participants performed their first trial (DHY) without any rehydration. During this session the total weight lost during the trial was determined. The fluid loss that occurred during this session was then used to determine the participant's swear rate (L·hr^−1). To continue in the study, participant's sweat rate was or exceeded 1.3 L·hr^−1. During the next three trails participants were provided 250 ml of fluid every 15 minutes in equal amounts. During one of the trials participants consumed only a flavored sports drink (ELECT only), while during the other trials participants consumed the alanine-glutamine supplement (Sustamine™) mixed in the same flavored sports drink at either a low (LD: 300 mg per 500 ml) or high (HD: 1 g per 500 ml) dose. Measurement of upper body reaction time was performed on the Dynavision D2 Visuomotor Training Device (D2; Dynavision International LLC, West Chester, Ohio). The D2 is a light training reaction device, developed to train sensory motor integration through the visual system. It consists of a board (4 foot×4 foot) that can be raised or lowered relative to the height of the operator. It contains 64 target buttons arranged into five concentric circles surrounding a center screen that can be illuminated to serve as a stimulus for the participant. Participants were required to assume a comfortable athletic stance and stand at a distance from the board where they could easily reach all of the lights. The board height was adjusted so the LCD screen was located just below eye level. A total of three different reaction tests were conducted. Participants were instructed to fixate their gaze on the LCD screen in the middle of the board and to keep their focus there for the entirety of the experiment. The third assessment (MODE B) was similar to the previous measure in that participants were required to react to a visual stimulus as it changed positions on the board. However, the difference between the two assessments was that the stimulus remained for 1 s before it changed to another random location, and each participant was required to verbally recite a five digit number that was presented on the center screen of the D2 during each assessment. The appearance of the digits placed an additional demand on the information processing resources of the participant. The participant was instructed to successfully identify and strike each stimulus before it changed position and score as many strikes as possible within 60 s. The number of successful hits was recorded for each participant. Additionally, to make inferences on true effects of the different trials on reaction performance, an analysis based on the magnitude of differences, calculated from 90% confidence intervals, as previously described by Batterham and Hopkins (2005), was used in this study. Differences in Post-Pre performance (Δresponse) between trials were analyzed via a published spreadsheet (Hopkins 2007), with the smallest non-trivial change set at 20% of the grand standard deviation (Batterham and Hopkins 2005). All data are expressed as a mean effect±SD, with percent chances of a beneficial, trivial or negative outcome. Qualitative inferences, based on quantitative chances were assessed as: <1% almost certainly not, 1-5% very unlikely, 5-25% unlikely, 25-75% possibly, 75-95% likely, 95-99% very likely and >99% almost certainly (Hopkins 2002).

C[C@H](N)C(=O)N[C@@H](CCC(N)=O)C(=O)O [L-Alanyl-L-Glutamine] (H-Ala-Gln-OH)
Mode B Avg Δ, Interpretation (Dehydration vs High Dose): likely negative | Mode B Avg Δ, Mean Difference (Dehydration vs High Dose): −0.023 | Mode B Avg Δ, Percent Negative (Dehydration vs High Dose): 82.12% | Mode B Avg Δ, Percent Positive (Dehydration vs High Dose): 1.37% | Mode B Avg Δ, Percent Trivial (Dehydration vs High Dose): 16.50% | Mode B Hits Δ, Interpretation (Dehydration vs High Dose): Unclear | Mode B Hits Δ, Mean Difference (Dehydration vs High Dose): 0.67 | Mode B Hits Δ, Percent Negative (Dehydration vs High Dose): 20.22% | Mode B Hits Δ, Percent Positive (Dehydration vs High Dose): 31.57% | Mode B Hits Δ, Percent Trivial (Dehydration vs High Dose): 48.20% | Mode B Avg Δ, Interpretation (Dehydration vs Low Dose): Unclear | Mode B Avg Δ, Mean Difference (Dehydration vs Low Dose): −0.0075 | Mode B Avg Δ, Percent Negative (Dehydration vs Low Dose): 41.89% | Mode B Avg Δ, Percent Positive (Dehydration vs Low Dose): 8.13% | Mode B Avg Δ, Percent Trivial (Dehydration vs Low Dose): 49.99% | Mode B Hits Δ, Interpretation (Dehydration vs Low Dose): Unclear | Mode B Hits Δ, Mean Difference (Dehydration vs Low Dose): −1.1 | Mode B Hits Δ, Percent Negative (Dehydration vs Low Dose): 31.06% | Mode B Hits Δ, Percent Positive (Dehydration vs Low Dose): 10.62% | Mode B Hits Δ, Percent Trivial (Dehydration vs Low Dose): 58.32% | Mode B Avg Δ, Interpretation (Gatorade vs High Dose): No | Mode B Hits Δ, Interpretation (Gatorade vs High Dose): Unclear | Mode B Hits Δ, Mean Difference (Gatorade vs High Dose): −0.5 | Mode B Hits Δ, Percent Negative (Gatorade vs High Dose): 33.43% | Mode B Hits Δ, Percent Positive (Gatorade vs High Dose): 25.96% | Mode B Hits Δ, Percent Trivial (Gatorade vs High Dose): 40.61% | Mode B Avg Δ (time per hit), group mean (High Dose (1 g per 500 ml)): 0 | Mode B Hits Δ, group mean (High Dose (1 g per 500 ml)): 2.75 | Mode B Avg Δ (time per hit), group mean (Low Dose (300 mg per 500 ml)): −0.0158 | Mode B Hits Δ, group mean (Low Dose (300 mg per 500 ml)): 4.5 | Mode B Avg Δ, Interpretation (Low Dose vs Gatorade): possibly negative | Mode B Avg Δ, Mean Difference (Low Dose vs Gatorade): −0.016 | Mode B Avg Δ, Percent Negative (Low Dose vs Gatorade): 70.44% | Mode B Avg Δ, Percent Positive (Low Dose vs Gatorade): 1.16% | Mode B Avg Δ, Percent Trivial (Low Dose vs Gatorade): 28.39% | Mode B Hits Δ, Interpretation (Low Dose vs Gatorade): Unclear | Mode B Hits Δ, Mean Difference (Low Dose vs Gatorade): 2.3 | Mode B Hits Δ, Percent Negative (Low Dose vs Gatorade): 25.04% | Mode B Hits Δ, Percent Positive (Low Dose vs Gatorade): 48.77% | Mode B Hits Δ, Percent Trivial (Low Dose vs Gatorade): 26.19% | Mode B Avg Δ, Interpretation (Low Dose vs High Dose): Unclear | Mode B Avg Δ, Mean Difference (Low Dose vs High Dose): −0.016 | Mode B Avg Δ, Percent Negative (Low Dose vs High Dose): 64.75% | Mode B Avg Δ, Percent Positive (Low Dose vs High Dose): 5.03% | Mode B Avg Δ, Percent Trivial (Low Dose vs High Dose): 30.22% | Mode B Hits Δ, Interpretation (Low Dose vs High Dose): Unclear | Mode B Hits Δ, Mean Difference (Low Dose vs High Dose): 1.8 | Mode B Hits Δ, Percent Negative (Low Dose vs High Dose): 7.59% | Mode B Hits Δ, Percent Positive (Low Dose vs High Dose): 40.19% | Mode B Hits Δ, Percent Trivial (Low Dose vs High Dose): 52.22% | successful hits in MODE B and time per successful hits (between trials): No differences were noted between trials
